{"source": "patent US9005641B2", "about": "“Compositions and methods for preventing or reducing resistance of insects to insecticides” (Rothamsted Research Limited, priority 2002, dated 2015)", "key": {"[1]": {"system": "pyrethroid-resistant H. armigera larvae", "test": "Synergism studies: PBO pre-treatment before pyrethroid, larval mortality", "method": "These involved a comparison of esterase inhibition (expressed as % of control, ± standard deviation) incurred by H. armigera larvae over time following topical application of 1 μl PBO (1%), and the effect on mortality of pyrethroid-resistant larvae when exposed to increasing PBO (1 μl, 1% PBO/larva) pre-treatment intervals before fenvalerate (1 μl, 0.125% fenvalerate/larva, FIG. 3) and zeta-cypermethrin (1 μl, 0.01% zeta-cypermethrin/larva, FIG. 4) exposure."}, "[2]": {"system": "pyrethroid resistant second instar H. armigera larvae", "test": "Field trial on cotton, night sprays", "assay_type": "in vivo, Helicoverpa armigera", "conditions": "one day after treatment; lambdacyhalothrin 15 g a.i./ha, PBO 320 g a.i./ha; strain 20 fold resistant", "experimental": "In the lack of H. armigera pressure on cotton, pyrethroid resistant second instar H. armigera larvae, which were the progeny a field strain originating from Queensland, were placed on cotton plant. The strain was 20 fold resistant to lambdacyhalothrin.\nInsecticides were mixed with water.\nThe trial was conducted on replicated, 1 row×2 m plots. Each plot contained from 13-17 mature cotton plants. There was an unsprayed buffer of two rows between each plot. Just prior to sunset, ten second instar H. armigera larvae were placed onto the terminals of each plant in the test plots and the plots sprayed. H. armigera numbers per plant were assessed one day after treatment. Temperature ranged from 24-26° C. The mean percentage mortality and standard deviation were calculated for each treatment."}}, "data": [{"smiles": "CC1(C)C(C=C(Cl)Cl)C1C(=O)OC(C#N)c1cccc(Oc2ccccc2)c1", "note": "(racemic) [zeta-cypermethrin, (S)-cyano(3-phenoxyphenyl)-methyl(±)-cis-trans-3-(2,2,-dichloroethenyl)-2,2-dimethylcyclo-propanecarboxylate]", "values": [{"measurement": "mortality (plateau)", "setting": "[1]; 1 μl 0.01% zeta-cypermethrin/larva, PBO (1 μl, 1%) pre-treatment interval 4-10 hrs", "result": 100, "unit": "%"}]}, {"smiles": "CC(C)C(C(=O)OC(C#N)c1cccc(Oc2ccccc2)c1)c1ccc(Cl)cc1", "note": "(stereo not drawn) [fenvalerate, (R—(R*,S*)-4-chloro-α(1-methylethyl)benzeneacetic acid, cyano (3-phenoxyphenyl)methyl ester)]", "values": [{"measurement": "mortality (plateau)", "setting": "[1]; 1 μl 0.125% fenvalerate/larva, PBO (1 μl, 1%) pre-treatment interval 4-5 hrs", "result": 100, "unit": "%"}]}, {"smiles": "CC1(C)[C@H](C(=O)O[C@H](C#N)c2cccc(Oc3ccccc3)c2)[C@@H]1/C=C(\\Cl)C(F)(F)F", "note": "[lambdacyhalothrin]", "values": [{"measurement": "mortality / control of H. armigera", "setting": "[2]", "result": "~40", "unit": "%"}]}]}
